From ChEMBL document CHEMBL1201862, “PubChem BioAssay data set” (2004) come the findings set out here.

Test systems include 786-0; BT-549; SK-MEL-2; T47D; HOP-92; NCI-H460; HL-60; PC-3; ACHN; UACC-62; HCT-15; Malme-3M; SF-539; KM12; EKVX; Hs-578T; HT-29; SW-620; CCRF-CEM; HCC 2998.
Holding throughout (assay): growth of human tumour cells (NCI), 48 h

Each structure is given as a SMILES string.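 Five compound concentrations were applied to cells in 96-well plates for 48 hours; endpoints were derived by simple linear interpolation of the resulting dose-response curve. GI50 = concentration required for 50% inhibition of growth.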 Activity calls are given as the source filed them. Rule as the data show it: active = GI50 up to about 1.1 µM and inactive = higher.

As to `O=C(CSc1nccc(=O)[nH]1)c1ccccc1`, the GI50 was > 100 µM (inactive) with 786-0; > 100 µM (inactive) in the assay on BT-549; > 100 µM (inactive) with SK-MEL-2; > 100 µM (inactive) with T47D; > 100 µM (inactive) in the assay with HOP-92; 80.5 µM (inactive) with NCI-H460. The GI50 with HL-60 was > 100 µM (inactive); in the assay with PC-3, > 100 µM (inactive); with ACHN, > 100 µM (inactive); in the assay on UACC-62, 46.2 µM (inactive); in the assay on HCT-15, > 100 µM; in the assay on Malme-3M it was 82.4 µM (inactive). The GI50 with SF-539 was 39.8 µM (inactive); in the assay on KM12, > 100 µM (inactive); in the assay with EKVX, > 100 µM (inactive); in the assay with Hs-578T, 16.1 µM (inactive); with HT-29, > 100 µM (inactive); in the assay with SW-620 it was > 100 µM (inactive).

For the compound `C=C(C)CC1(O)C(=O)C(OCC)=C1OCC` (centres undefined), the GI50 in the assay with 786-0 is > 100 µM (inactive); in the assay on BT-549, > 100 µM (inactive); in the assay on SK-MEL-2, > 100 µM (inactive); in the assay on T47D it was > 100 µM (inactive); in the assay on HOP-92, 48.6 µM (inactive); in the assay with CCRF-CEM, > 100 µM (inactive). Besides, the GI50 is > 100 µM (inactive) in the assay with NCI-H460; > 100 µM (inactive) with HL-60; > 100 µM (inactive) in the assay with PC-3; > 100 µM (inactive) in the assay with ACHN; > 100 µM (inactive) with UACC-62; > 100 µM with HCT-15. In addition, the GI50 in the assay on Malme-3M is 48.1 µM (inactive); with SF-539 it was > 100 µM (inactive); in the assay with KM12 it was > 100 µM (inactive); in the assay on EKVX, > 100 µM (inactive); in the assay with Hs-578T, > 100 µM (inactive); in the assay with HT-29, > 100 µM (inactive). Also, the GI50 in the assay with SW-620 is > 100 µM (inactive).

On to `CCOC(=O)c1nc2c(nc1C(=O)OCC)C(=O)c1ccccc1C2=O`, for which the GI50 with 786-0 was 0.839 µM (active); in the assay with BT-549 it was 0.471 µM (active); in the assay on SK-MEL-2, 0.394 µM (active); in the assay on T47D, 3.85 µM (inactive); in the assay on HOP-92 it was 5.36 µM (inactive); with CCRF-CEM, 0.601 µM (active). In addition, the GI50 in the assay with NCI-H460 is 1.59 µM (inactive); in the assay with HL-60 it was 0.427 µM (active); in the assay with PC-3, 2.9 µM (inactive); with ACHN it was 0.757 µM (active); in the assay with UACC-62, 0.288 µM (active); with HCT-15, 1.92 µM. In addition, the GI50 in the assay on Malme-3M is 0.174 µM (active); in the assay on HCC 2998, 1.35 µM (inactive); with SF-539, 0.473 µM (active); with KM12, 1.45 µM (inactive); in the assay with EKVX, 1.38 µM (inactive); with Hs-578T, 0.236 µM (active). The results for the GI50 with HT-29 and in the assay with SW-620 were 2.5 µM (inactive) and 0.881 µM (active), respectively.

Take `NC1C2C(CC(=O)O)OCC=C3CN4CCC1(C(=O)C(=O)O)C4CC32` (centres undefined): the GI50 with 786-0, with BT-549, in the assay with SK-MEL-2, with T47D, in the assay with HOP-92 and in the assay with CCRF-CEM was > 100 µM (inactive) throughout. The GI50 is > 100 µM (inactive) with NCI-H460; > 100 µM (inactive) in the assay on HL-60; > 100 µM (inactive) in the assay on PC-3; > 100 µM (inactive) in the assay with ACHN; > 100 µM (inactive) in the assay on UACC-62; > 100 µM in the assay on HCT-15. The GI50 with Malme-3M, with SF-539, with KM12, in the assay with EKVX, in the assay with Hs-578T and in the assay on HT-29 was > 100 µM (inactive) each time. Further, in the assay with SW-620, the GI50 is > 100 µM (inactive).

Regarding `NC(=O)NC(=O)c1cccc(NC(=O)CF)c1`, the GI50 in the assay on 786-0, in the assay on BT-549, in the assay on SK-MEL-2, in the assay with T47D, in the assay on HOP-92 and in the assay on CCRF-CEM was > 100 µM (inactive) in each case. In addition, the GI50 with NCI-H460 was > 100 µM (inactive); with HL-60, > 100 µM (inactive); in the assay on PC-3 it was > 100 µM (inactive); in the assay with ACHN, > 100 µM (inactive); with UACC-62, > 100 µM (inactive); in the assay on HCT-15, > 100 µM. Also, the GI50 in the assay with Malme-3M, with HCC 2998, with SF-539, in the assay on KM12, in the assay with EKVX and with Hs-578T was > 100 µM (inactive) throughout. In addition, the GI50 in the assay with HT-29 and in the assay with SW-620 was > 100 µM (inactive) in each case.

Turning to `NC1=Nc2ccccc2Sc2nc3ccccc3n21`, the GI50 with 786-0 was 2.23 µM (inactive); in the assay with BT-549, 34.3 µM (inactive); in the assay with T47D it was 21.6 µM (inactive); with HOP-92, 22.7 µM (inactive); in the assay on CCRF-CEM, 3.33 µM (inactive); with NCI-H460, 17.2 µM (inactive). For the same compound, the GI50 in the assay with HL-60 is 2.4 µM (inactive); with PC-3 it was 9.62 µM (inactive); in the assay on ACHN, 29.7 µM (inactive); in the assay on UACC-62 it was 23.9 µM (inactive); in the assay with HCT-15, 35.5 µM; with Malme-3M, > 100 µM (inactive). Besides, the GI50 is 21.1 µM (inactive) in the assay with SF-539; 27.2 µM (inactive) in the assay with KM12; 55.7 µM (inactive) in the assay with Hs-578T; 9.12 µM (inactive) with HT-29; 46.1 µM (inactive) in the assay on SW-620.

Turning to `CC[C@H](NC(=O)OC(C)(C)C)C(=O)NCP(=O)(OCc1ccc([N+](=O)[O-])cc1)OCc1ccc([N+](=O)[O-])cc1`, the GI50 with 786-0 is 92.9 µM (inactive); with BT-549, 31.7 µM (inactive); with SK-MEL-2 it was 50.9 µM (inactive); in the assay with T47D it was 63 µM (inactive); with HOP-92 it was 31.5 µM (inactive); in the assay with CCRF-CEM, 21.6 µM (inactive). Moreover, the GI50 was 27.8 µM (inactive) in the assay on NCI-H460; 18.2 µM (inactive) in the assay on HL-60; 34.8 µM (inactive) in the assay on PC-3; 23 µM (inactive) with ACHN; 18.3 µM (inactive) in the assay with UACC-62; 26.9 µM in the assay with HCT-15. Further, the GI50 was 53.5 µM (inactive) in the assay with Malme-3M; 36.2 µM (inactive) with HCC 2998; 31.8 µM (inactive) with SF-539; 26.8 µM (inactive) in the assay on KM12; 37.2 µM (inactive) in the assay on Hs-578T; 17.7 µM (inactive) in the assay on HT-29. In addition, the GI50 in the assay with SW-620 was 40.6 µM (inactive).

Take `COC1=C(C)C(=O)C2=C(C1=O)C1C3CC4=C(C(=O)C(OC)=C(C)C4=O)C(CNC(=O)C(C)=O)N3C(C#N)C(C2)N1C` (centres undefined): the GI50 with 786-0 is 0.00383 µM (active); in the assay with BT-549, < 0.001 µM (active); in the assay on SK-MEL-2, 0.00226 µM (active); in the assay with T47D, < 0.001 µM (active); in the assay with HOP-92, 0.00442 µM (active); with CCRF-CEM, 0.00839 µM (active). Besides, the GI50 in the assay with NCI-H460 is 0.0101 µM (active); with HL-60, 0.00328 µM (active); in the assay with PC-3 it was 0.00352 µM (active); in the assay on ACHN, 0.0209 µM (active); with UACC-62, 0.00353 µM (active); in the assay with HCT-15 it was 0.00603 µM. Further, the GI50 with Malme-3M was 0.00678 µM (active); with HCC 2998, 0.00629 µM (active); in the assay with SF-539, 0.00891 µM (active); in the assay on KM12, 0.00789 µM (active); with EKVX it was 0.104 µM (active); in the assay on Hs-578T, < 0.001 µM (active). Besides, the GI50 in the assay with HT-29 is 0.00388 µM (active); with SW-620, 0.00246 µM (active).

Consider `CCN(CCCl)CCCCNc1c2ccccc2nc2ccc(OC)cc12`, for which the GI50 in the assay on 786-0 was 0.157 µM (active); in the assay on BT-549, 1.38 µM (inactive); with SK-MEL-2, 0.662 µM (active); with T47D, 0.191 µM (active); in the assay on HOP-92, 0.18 µM (active); in the assay on CCRF-CEM, < 0.037 µM (active). For the same compound, the GI50 is 0.0601 µM (active) with NCI-H460; 0.0929 µM (active) in the assay with HL-60; 0.216 µM (active) in the assay on PC-3; 0.178 µM (active) in the assay with ACHN; 0.171 µM (active) in the assay with UACC-62; 0.752 µM with HCT-15. The GI50 was 0.957 µM (active) with Malme-3M; 0.653 µM (active) with SF-539; 0.356 µM (active) in the assay with KM12; 0.723 µM (active) with EKVX; 1.22 µM (inactive) in the assay with Hs-578T; 0.13 µM (active) in the assay with HT-29. In addition, the GI50 in the assay with SW-620 was 0.0664 µM (active).

Turning to `CC(=O)CC1=C(OC(C)C)C2(OCCO2)C1O` (centres undefined), the GI50 in the assay with 786-0, with BT-549, with SK-MEL-2, with T47D, with HOP-92 and in the assay with CCRF-CEM was > 100 µM (inactive) throughout. Also, the GI50 in the assay with NCI-H460 was > 100 µM (inactive); in the assay with HL-60, > 100 µM (inactive); in the assay with PC-3 it was > 100 µM (inactive); in the assay on ACHN, > 100 µM (inactive); in the assay on UACC-62, > 100 µM (inactive); in the assay with HCT-15 it was > 100 µM. The GI50 in the assay on Malme-3M, in the assay on SF-539, in the assay on KM12, in the assay with EKVX, in the assay on Hs-578T and in the assay on HT-29 was > 100 µM (inactive) in each case. Also, in the assay on SW-620, the GI50 was > 100 µM (inactive).

For the compound `CN(CCC(=O)O)S(=O)(=O)c1ccccc1`, the GI50 in the assay with 786-0, in the assay on BT-549, in the assay on SK-MEL-2, with T47D, with HOP-92 and in the assay with CCRF-CEM was > 100 µM (inactive) in each case. Besides, the GI50 in the assay on NCI-H460 is > 100 µM (inactive); in the assay on HL-60, > 100 µM (inactive); in the assay on PC-3, > 100 µM (inactive); in the assay on ACHN, > 100 µM (inactive); in the assay on UACC-62, > 100 µM (inactive); with HCT-15, > 100 µM. Besides, the GI50 with Malme-3M, in the assay on SF-539, in the assay with KM12, in the assay with EKVX, with Hs-578T and in the assay with HT-29 was > 100 µM (inactive) throughout. Also, in the assay on SW-620, the GI50 was > 100 µM (inactive).
